Results from US20140093960A1, “CELL DIFFERENTIATION INDUCER AND DIFFERENTIATION INDUCING METHOD” (The University of Tokushima, priority 2011, published 2014).

Legend:
Type in all cases: cell-based
mouse ES cells (AB2-2) [1] = test: Induction of differentiation of mouse ES cell, change of morphology (Example 7(1)); conditions: minimum concentration at which the change of the morphology was observed; embryoid bodies from mouse ES cells, 25 to 100 μM, cultured 4 days, hematoxylin staining
Procedure: The culture medium was added to a petri dish having a diameter of 60 mm. Further, 1 10^6 mouse ES cells (AB2-2) which were obtained from Dr. Alan Bradley in The Wellcome Trust Sanger Institute were added thereto, and incubated under 5% CO2 atmosphere at 37° C. for 1 day. Then, the cells were separated using a glass pipet and added to the same petri dish again, and incubated under 5% CO2 atmosphere at 37° C. for 3 days to form embryoid bodies.
Then, the above cultured cell dispersion (100 μL) was added to 96 well plate which was coated with collagen type 1, and was incubated under 5% CO2 atmosphere at 37° C. overnight. Separately, each examined compound was dissolved in a culture medium which was obtained by removing […] and a leukemia inhibitory factor from an ES culture medium and which was used for inducing a differentiation, and the solutions were added each well so that the final concentrations were 25 to 100 μM. As examined compounds, compounds which were synthesized by similar methods to Examples 1 to 6 in addition to the compounds synthesized in Examples 1 to 6 were used. […] In addition, fetal bovine serum was added at a final concentration of 5% and bFGF: basic fibroblast growth factor was added at a final concentration of 2 ng/mL to each well, and the cells were cultured in an adhesive state under 5% CO2 atmosphere at 37° C. for 4 days.
After the above culture, paraformaldehyde was added to each well at a final concentration of 2% to fix the cells. The cells were stained with hematoxylin, and the change of the morphology thereof was observed using an optical microscope. As control, only dimethylsulfoxide was added at a final concentration of 0.5% without adding the examined compound. […] In addition, the minimum concentrations of each examined compound at which the change of the morphology was observed are summarized in Table 2.

mouse ES cell = test: Gene expression analysis by RT-PCR (Example 7(3)); conditions: mouse ES cell treated with 80 μM for 5 days
Procedure: Differentiation of a mouse ES cell was induced similarly to the above (1) except that the cell was treated with 80 μM of the examined compound 4 for 5 days. From the obtained cell, total RNA was extracted using TRIzol reagent. Using the total RNA, cDNA was synthesized by an ordinary method. A polymerase chain reaction was carried out using the synthesized cDNA as a template and each primer of Oct3/4▪Nanog—a marker of an undifferentiated cell, Nestin—a marker of a neural stem cell, Sox9▪Sox10▪Slug—a marker of a neural crest cell, GATA2—a marker of a mesoderm, Sca-1—a marker of a stem cell, and c-kit—a marker of a hematopoietic stem cell for analyzing the expression of each marker. In addition, for comparison, the expression was similarly analyzed with respect to an undifferentiated mouse ES cell and an embryoid body obtained by culturing a mouse ES cell for 3 days.

mouse ES cells (AB2-2) [2] = test: Induction of differentiation of mouse ES cell, morphology (Example 10); conditions: 50 μM, 4 days, hematoxylin staining, optical microscope
Procedure: A culture medium to induce an embryoid bodies used in Example 7 (4 mL) was added to a petri dish having a diameter of 60 mm. Further, 10^6 mouse ES cells (AB2-2) were added thereto, and incubated under 5% CO2 atmosphere at 37° C. for 3 days. The obtained embryoid was added into a […] volume tube. The above petri dish was washed by adding 1 PBS (5 mL), and the PBS was added into the above tube. The half quantity of the obtained cells was transferred to a separate tube, and the tube was stood still at room temperature for 5 minutes. After the supernatant was removed, an NP medium (10.5 mL) used in Example 7 was added. The cells were dispersed well, and the mixture was added to each well of a 96 well plate which was coated with collagen in an amount of 100 μL. The cells were incubated under 5% CO2 atmosphere at 37° C. overnight.
In DMSO, 3,4-dihydroxybenzonitrile (manufactured by Tokyo Chemical Industry Co., Ltd.) was dissolved. The solution was added to each well so that the total amount became 200 μL in a final concentration of 12.5 μM, 25 μM or […]. Further, blood serum and bFGF: basic fibroblast growth factor were added to each well respectively in final concentrations of 5% and 10 ng/mL, and the cells were cultured under 5% CO2 atmosphere at 37° C. for 4 days.
After the cultivation, 100 μL of the culture medium was removed from each well. […]

mouse ES cells (AB2-2) [3] = test: Combinational effect with retinoic acid, cell count (Example 9); conditions: 4 days; for number of the nervous system cells: average of four experiments
Procedure: The culture medium was added to a petri dish having a diameter of 60 mm. Further, 1 10^6 mouse ES cells (AB2-2) which were obtained from Dr. Alan Bradley in The Wellcome Trust Sanger Institute were added thereto, and incubated under 5% CO2 atmosphere at 37° C. for 1 day. Then, the cells were separated using a glass pipet and added to the same petri dish again, and incubated under 5% CO2 atmosphere at 37° C. for 3 days to form embryoid bodies. […] Then, the above cultured cell dispersion ([…]) was added to 96 well plate which was coated with collagen type I, and was incubated under 5% CO2 atmosphere at 37° C. overnight. On the next day, the examined compound 5 only or with retinoic acid in combination in each final concentration of 10 nM was added thereto, and the cells were incubated in adhesive state under 5% CO2 atmosphere at 37° C. for 4 days. After the incubation, the cells were washed with PBS, and separated using 0.25% Trypsin. The number of the cells was counted. This experiment was carried out four times, and the average of the counted numbers was obtained. […] In the FIG. 7, “RA” represents retinoic acid.

Compound: 2-(2,3-Dihydroxyphenyl)thiazole-4-carboxylic acid [examined compound 3]
- Minimum inhibitory concentration (mouse ES cells (AB2-2) [1]): 70 μ M 70 μ M
- Slug expression (marker of a neural crest cell) (mouse ES cell): remarkably expressed
- Sox9 expression (marker of a neural crest cell) (mouse ES cell): expressed
- Sox10 expression (marker of a neural crest cell) (mouse ES cell): expressed

Compound: N#Cc1ccc(O)c(O)c1 [3,4-dihydroxybenzonitrile]
- change of the cells' morphology (mouse ES cells (AB2-2) [2]): nervous system cells which had cell processes all around were observed

Compound: COC(=O)c1cc(O)c(O)c(O)c1 [Example 5, Methyl 3,4,5-trihydroxybenzoate]
- number of the nervous system cells (mouse ES cells (AB2-2) [3]; compound only, final concentration 10 nM): 1.71±0.51 10^6
- increase of the number of nervous system cells with retinoic acid in combination versus compound only (mouse ES cells (AB2-2) [3]; each final concentration 10 nM): about 1.89 times
- number of the nervous system cells (mouse ES cells (AB2-2) [3]; in combination with retinoic acid, each final concentration 10 nM): 3.23±0.42 10^6

Compound: O=C(O)c1csc(-c2cccc(OCc3ccccc3)c2OCc2ccccc2)n1 [examined compound 1, 2-{2,3-Bis(benzyloxy)phenyl}thiazole-4-carboxylic acid]
- Minimum effective concentration for morphology change (mouse ES cells (AB2-2) [1]): 50 μ M

Compound: O=C(O)[C@@H]1CSC(c2cccc(OCc3ccccc3)c2OCc2ccccc2)=N1 [examined compound 2, (R)-2-{2,3-Bis(benzyloxy)phenyl}-4,5-dihydrothiazole-4-carboxylic acid]
- Minimum effective concentration for morphology change (mouse ES cells (AB2-2) [1]): 100 μ M
